Experimental data as given in the CheMixHub ionic liquid set.

Assay: xn = mol fraction of the nth substance listed
Conditions: 101.3 kPa; for electrical conductivity: frequency 0.001 MHz

O=C([O-])C1=NN(c2ccc(S(=O)(=O)[O-])cc2)C(=O)C1N=Nc1ccc(S(=O)(=O)[O-])cc1.[Na+].[Na+].[Na+] (stereo not drawn) + CCCC[N+](CCCC)(CCCC)Cc1ccccc1.[Cl-] + O
Conditions	electrical conductivity, 298.15 K [S/m]	electrical conductivity, 308.15 K [S/m]	electrical conductivity, 318.15 K [S/m]	viscosity, 298.15 K [mPa·s]	viscosity, 308.15 K [mPa·s]	viscosity, 318.15 K [mPa·s]
x1 = 0.0001802, x2 = 1.802e-05	0.11	0.131	0.158	0.933	0.799	0.663
x1 = 0.0001803, x2 = 5.405e-05	0.119	0.142	0.182	0.951	0.818	0.68
x1 = 0.0001804, x2 = 9.008e-05	0.151	0.168	0.196	0.971	0.836	0.699
x1 = 0.0004504, x2 = 1.801e-05	0.176	0.226	0.28	0.956	0.818	0.68
x1 = 0.0004507, x2 = 5.403e-05	0.201	0.248	0.328	0.975	0.839	0.698
x1 = 0.000451, x2 = 9.005e-05	0.263	0.301	0.353	0.996	0.858	0.719
x1 = 0.0007205, x2 = 1.801e-05	0.245	0.299	0.384	0.975	0.836	0.695
x1 = 0.0007209, x2 = 5.402e-05	0.269	0.342	0.452	0.995	0.858	0.715
x1 = 0.0007213, x2 = 9.003e-05	0.369	0.419	0.478	1.019	0.878	0.738
x1 = 0.0009904, x2 = 1.8e-05	0.319	0.38	0.493	0.994	0.853	0.711
x1 = 0.000991, x2 = 5.4e-05	0.353	0.438	0.577	1.015	0.877	0.733
x1 = 0.0009916, x2 = 9e-05	0.469	0.524	0.603	1.039	0.897	0.756
x1 = 0.00126, x2 = 1.8e-05	0.398	0.476	0.609	1.011	0.869	0.725
x1 = 0.001261, x2 = 5.399e-05	0.435	0.546	0.716	1.034	0.895	0.749
x1 = 0.001262, x2 = 8.998e-05	0.582	0.654	0.763	1.06	0.917	0.774
x1 = 0.00153, x2 = 1.799e-05	0.472	0.571	0.735	1.028	0.884	0.738
x1 = 0.001531, x2 = 5.397e-05	0.511	0.651	0.852	1.052	0.913	0.764
x1 = 0.001532, x2 = 8.995e-05	0.702	0.78	0.902	1.081	0.938	0.792
